Reference: patent publication US20130274180A1, “Pharmaceutical Compositions” (priority 2005, published 2013)

Columns and labels:
in vivo = settings: rat, po
[1] = type: physicochemical
Excerpt: The manufacture of an amorphous solid dispersion containing VX-950 presented several challenges. […] Therefore, an appropriate solvent or solvent mixture is crucial to optimizing the processing and production of a solid dispersion.

[2] = Effect of SLS concentration on apparent solubility (Example 10); type: physicochemical; settings: VX-950 (95% L/5% D)
Experimental: The effect of SLS concentration on the apparent solubility of VX-950 solid dispersions were tested.

| SMILES | bioavailability (in vivo) [%] | aqueous solubility [1] | pH dependence of aqueous solubility [1] | solubility in water [1] | % dissolved in water @ 5 min. [2] [%] |
| --- | --- | --- | --- | --- | --- |
| CCC[C@H](NC(=O)[C@@H]1[C@H]2CCC[C@H]2CN1C(=O)[C@@H](NC(=O)[C@@H](NC(=O)c1cnccn1)C1CCCCC1)C(C)(C)C)C(=O)C(=O)NC1CC1 [VX-950] | < 0.5 | virtually undetectable | not pH-dependent | highly insoluble | – |
| CCC[C@H](NC(=O)[C@@H]1[C@H]2CCC[C@H]2CN1C(=O)[C@@H](NC(=O)[C@@H](NC(=O)c1cnccn1)C1CCCCC1)C(C)(C)C)C(=O)C(=O)NC1CC1 [No Excipients] | – | – | – | – | 2.7 |
